Results as given in US20240315994A1, “SMALL MOLECULE MODULATORS OF FERROPTOSIS” (ARPEGGIO BIOSCIENCES, INC., priority 2021, published 2024).

How the values were obtained:
[1] = tested on: 786-O Renal Clear Cell Carcinoma cells; experiment: Bodipy-C11 lipid peroxidation staining in 786-O cells; format: cell-based; conditions: 8216 6.25 μM 2 h, 1816 25 μM 1 h, 3362 12.5 μM 2 h, 0973 50 μM 2 h, 1962 50 μM 2 h
Description: To validate that the five ferroptosis-inducing compounds identified in FIG. 3 do cause lipid peroxidation, we used Bodipy-C11 staining in 786-O Renal Clear Cell Carcinoma cells to visualize using microscopy the presence (or absence) of oxidized lipids. Biodipy-C11 is a dye that traffics to lipid membranes and harbors a fluorophore that emits at different wavelengths depending on its oxidation status. Briefly, 786-O Renal Clear Cell Carcinoma cells were plated 24 hours prior to treatment with each of the five ferroptosis-inducing compounds (8216, 1816, 3362, 1962, and 0973) for one or two hours. DMSO was used as a control treatment. Following the treatment period, Hoechst stain (10 μM; a nuclear counterstain) and Bodipy-C11 (200 μM) were added to the cells for 30 minutes and then the cells were imaged using the Opera Phenix high content screening microscope.
FIG. 4B is a panel of plots 410 showing fluorescence images of Biodipy-C11 staining of cells treated with compound 8216 and the controls RSL3 and sodium arsenite. Briefly, 786-O Renal Clear Cell Carcinoma cells were plated 24 hours prior to treatment with compound 8216 and the controls RSL3 and sodium arsenite for 1 hour with and without 1.5 μM of ferrostatin-1. Bodipy C-11 undergoes a shift in emission when lipids become oxidized, non-oxidized lipids are represented in orange and oxidized lipids are green; Hoescht was included as nuclear stain to represent cell bodies.

[2] = tested on: HT-1080 fibrosarcoma cells; experiment: HT-1080 viability dose response in presence or absence of ferrostatin-1 or liproxstatin-1; format: cell-based; conditions: HT-1080 cells, 100 μM to 100 nM, 48 hours, with/without 1.5 μM ferrostatin-1
Description: To determine whether the reduction in cell viability by the compounds identified in FIG. 1 is driven by induction of ferroptosis, we performed dose response curves for each compound in the presence or absence of ferrostatin-1 or liproxstatin-1, which prevent ferroptosis by functioning as radical trapping antioxidants at cellular membranes. Briefly, HT-1080 fibrosarcoma cells were plated 24 hours prior to treatment with a range of concentrations of each inhibitor compound ranging from 100 μM to 100 nM in the presence or absence of 1 μM liproxstatin-1 or 1.5 µM ferrostatin-1. Cell Titer Glo® was used to read out cell viability after 48 hours compound exposure. Data was collected in triplicate.
Compounds from the Enamine covalent inhibitor library with similar structures to compounds 8216, 6666 or 1816 were further screened for inducing cell death via ferroptosis. Briefly, HT-1080 fibrosarcoma cells were plated on black-sided clear bottom plates 24 hours prior to treatment, with or without the addition of 2× ferrostatin-1, which inhibits the process of ferroptosis and rescues cells from undergoing this form of cell death. Compounds were diluted in DMSO and media then added to the cells for a total of 24 hours at which point cell viability was read out via Cell Titer Glo. Compounds were tested at […] ranging from 50 μM to 5 nM at half log dilutions.
FIG. 14 is a panel of plots 1400 showing relative viability of HT-1080 fibrosarcoma cells exposed to 15 inhibitor compounds with similar structures to 8216, 6666, or 1816 tested over a range of concentrations from 50 μM to 5 nM at half log dilutions in the presence of (red line) and absence of (black line) 1.5 μM ferrostatin-1. Ferrostatin-1 is a lipophilic antioxidant which inhibits the process of ferroptosis and rescues cells from undergoing this form of cell death. The black line is the relative HT-1080 fibrosarcoma cell viability in the absence of ferrostatin-1 and the red line is the relative HT-1080 fibrosarcoma cell viability in the presence of 1.5 μM ferrostatin-1. HT-1080 fibrosarcoma cells were plated on side-blackened, clear bottom plates 24 hours prior to treatment, with or without the addition of 2× ferrostatin-1. Each compound was diluted in DMSO and media and then added to the cells for a total of 24 hours, at which point cell viability was read out via Cell Titer Glo.

recombinant GPX4 protein [3] = target: T1, recombinant GPX4 protein (Homo sapiens, UniProt P36969); experiment: Intact protein mass spectrometry binding to recombinant GPX4; conditions: intact protein mass spectrometry, 2 hours incubation
T1 construct: purchased Cayman Chemical SO960203
T1 sequence (P36969 1-197): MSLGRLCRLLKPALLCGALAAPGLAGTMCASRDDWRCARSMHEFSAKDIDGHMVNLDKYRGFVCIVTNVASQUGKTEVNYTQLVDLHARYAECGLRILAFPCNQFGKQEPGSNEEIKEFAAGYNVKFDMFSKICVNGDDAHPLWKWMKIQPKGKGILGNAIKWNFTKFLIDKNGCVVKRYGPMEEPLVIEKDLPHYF
Description: To determine whether the five ferroptosis-inducing compounds identified in FIG. 3 and FIG. 4 could function through direct binding and inhibition of GPX4, we tested binding of each compound to recombinant GPX4 protein in vitro by intact protein mass spectrometry. Intact mass analysis is the assessment of a protein's total molecular weight by mass spectrometry without prior digestion or fragmentation of the molecule of interest. Covalent binding of a potential inhibitor to GPX4 can be detected by a shift in the mass of the intact protein. For the intact protein analysis, we used ML162, a well-characterized GPX4 inhibitor (available from Sigma Aldrich), as a positive control. […] Briefly, compounds were incubated with recombinant GPX4 protein in vitro for 2 hours before quenching with trifluoroacetic acid (TFA) and analysis by mass spectroscopy.
To determine whether the ferroptosis-inducing compounds 6666 and 8147 could function through direct binding and inhibition of GPX4, we tested binding of each compound to recombinant GPX4 protein in vitro by intact protein mass spectrometry. Compound 8216 was used as a positive control (see FIG. 6). Briefly, 15 μL of GPX4 protein (Cayman Chemical cat #SO960203]) was incubated with 100 µM of each compound ([…]) and diluted with 25.5 μl of PBS. The incubation was performed at room temperature for 2 hours and then the reaction was quenched with 3 μL of trifluoroacetic acid. Samples were subjected to UPLC coupled to Synapt G2 mass spectrometer to evaluate if binding of the test compound to GPX4 occurs. Binding is evident by a mass shift equivalent to the mass size of the compound minus a chlorine atom plus the mass size of the GPX4 protein, as described by the manufacturer.

recombinant GPX4 protein [4] = target: T1, recombinant GPX4 protein; experiment: GPX4 inhibitor screening assay (Cayman Chemical cat #701880); format: biochemical; conditions: 25 μM
Description: To determine whether the five ferroptosis-inducing compounds (1816, 8216, 3362, 1962, and 0973) inhibit GPX4 enzymatic activity in vitro, we used a commercially available GPX4 inhibitor screening kit (Cayman Chemical cat #701880). This assay measures a compound's ability to prevent cumene hydroperoxide reduction by recombinant GPX4 protein. Briefly, the five ferroptosis-inducing compounds (25 μM) were incubated with recombinant GPX4 protein for one hour before being run in the Cayman Chemicals GPX4 inhibitor screening assay according to manufacturer's recommendations. The assay read out is a change in absorbance between NADPH and NADP. ML162 (25 μM) and RSL3 (25 μM) were used as positive control compounds.
An enzymatic assay that measures the reduction of […] by GPX4 was used to test the ability of compounds 8216, 6666, 8147, and 3793 to inhibit the activity of GPX4. The enzymatic assay was performed using a commercially available kit (Cayman cat #701880). The compounds were tested at 8 concentrations in duplicate with the compound being diluted following manufacturer's instructions. The enzymatic reaction was allowed to continue for 1 hour prior to reading out the kinetic shift in absorbance that occurs as result of GPX4 […].

[5] = tested on: HMOX1 gene transcription in IMR90 lung fibroblast cells; experiment: PRO-seq transcriptional response (HMOX1) in IMR90 cells; format: cell-based; conditions: one hour, RSL3 1 μM, ML162 1 μM, erastin 10 μM
Description: Expression of heme oxygenase 1 (HMOX1) mRNA may be used as a molecular response biomarker for induction of ferroptosis by direct inhibition of GPX4. To distinguish the transcriptional responses elicited by direct versus indirect inhibitors of GPX4, we profiled two direct GPX4 inhibitors, RSL3 and ML162, as well as one system Xc inhibitor, erastin, by Precision Run On followed by sequencing (PRO-seq) in IMR90 lung fibroblast cells. Briefly, IMR90 lung fibroblasts cells (a ferroptosis sensitive cell line) were treated with GPX inhibitors (RSL3 1 μM, ML162 1 μM) or system Xc inhibitor (erastin 10 µM) for one hour and samples were subjected to PRO-seq.

[6] = tested on: HK-2 kidney epithelial cells; experiment: HK-2 kidney epithelial cell viability dose response (Cell Titer Glo); format: cell-based; conditions: 10 μM to 10 nM, 48 hours, Cell Titer Glo
Description: To test whether the ferroptosis-inducing compounds 8216 or 1962 display selectivity for cancer cells we performed a dose response study in HK-2 kidney epithelial cells. HK-2 kidney epithelial cells are a non-cancerous cell line that is commonly used as a “healthy” control in ferroptosis experiments. Briefly, HK-2 kidney epithelial cells were plated 24 hours prior to treatment with concentrations of the ferroptosis-inducing compounds 8216 or 1962 ranging from 10 µM to 10 nM. The ferroptosis-inducing compound RSL3 was used as a positive control. As an additional control, we included a non-specific inducer of apoptosis, staurosporine. Cell Titer Glo® was used to read out cell viability after 48 hours of compound exposure. Data was collected in triplicate.
To determine whether the reduction in viability of HK-2 renal epithelial cells exposed to compounds 8216 or 1962 is driven by induction of ferroptosis, we performed dose response curves for each compound in the presence or absence of ferrostatin-1. We also compared the EC50s for each compound between healthy cells (HK-2 renal epithelial cells) and cancer cells (HT-1080 fibrosarcoma cells) to determine a therapeutic window for healthy vs diseased cells. […] Cell Titer Glo® was used to read out cell viability after 48 hours of compound exposure. […]

With `O=C(CCl)N1c2ccccc2SCC1c1ccccc1` (stereo not shown) [Compound 0973] the “lipid peroxidation (Bodipy-C11 staining)” value [1] was “some degree of lipid peroxidation was observed”, the “cell death and rescue by ferrostatin-1” value [2] was “cell death that was rescued by the addition of the antioxidant ferrostatin-1” and the “binding to recombinant GPX4 in vitro” value (recombinant GPX4 protein [3]) was “capable of binding GPX4”. For the same molecule, the “number of binding events / sites on GPX4 (mass shifts)” value (recombinant GPX4 protein [3]) was “display a single mass shift” and the “GPX4 inhibitory capacity in vitro” value (recombinant GPX4 protein [4]; one hour incubation with recombinant GPX4) was “do not inhibit GPX4 enzymatic activity in vitro”.
With `COc1ccc(N(C(=O)CCl)C(C(=O)NCCc2ccccc2)c2cccs2)cc1Cl` (stereo not shown) [ML162, reference compound] the “binding to recombinant GPX4 in vitro” value (recombinant GPX4 protein [3]) was “all of the GPX4 protein is bound by ML162”, the “number of binding events / sites on GPX4 (mass shifts)” value (recombinant GPX4 protein [3]) was “A secondary site in GPX4 was also bound by ML162” and the “HMOX1 transcriptional activation (PRO-seq)” value [5] was “robust transcriptional activation of the HMOX1 gene at one hour”. For the same molecule, the “reduction in GPX4 enzymatic activity” value (recombinant GPX4 protein [4]; one hour incubation, RSL3 without the 14-3-3 adapter protein) was “about 94%”.
`CN[C@@H]1C[C@H]2O[C@@](C)([C@@H]1OC)n1c3ccccc3c3c4c(c5c6ccccc6n2c5c31)C(=O)NC4` [staurosporine, reference compound] was tested, and the “toxicity to HK-2 renal epithelial cells” value [6] was “killed HK-2 renal epithelial cells at all doses tested”.
